Active and inactive are the calls of the source. The rule behind the calls is not given here.
Columns and labels:
[1] = Drug uptake in Tumor of BALB/c mouse xenografted with […] Colon 26 cells at 37 kBq, iv measured at 48 hrs by auto-well gamma counter analysis; assay type: ADME, organism-based, Neoplasm; settings: in vivo
[2] = Drug uptake in […] Colon 26 cells measured per mg of protein after 3 hrs by auto-well gamma counter analysis; assay type: ADME, cell-based; settings: mouse, colon 26, 3 h
[3] = Biodistribution in spleen of BALB/c mouse xenografted with […] Colon 26 cells at 37 kBq, iv measured upto 96 hrs by auto-well gamma counter analysis; assay type: ADME, organism-based; settings: in vivo
[4] = Toxicity in BALB/c mouse xenografted with […] Colon 26 cells assessed as weight loss at 13.6 umol/kg, iv pretreated for 24 hrs followed by 30 mins irradiation with 50 W LED light and measured upto 7 days; assay type: organism-based; settings: in vivo, 168 h, dose 13.6 µmol/kg, time < 7 day
[5] = Biodistribution in liver of BALB/c mouse xenografted with […] Colon 26 cells at 37 kBq, iv measured upto 96 hrs by auto-well gamma counter analysis; assay type: ADME, organism-based; settings: in vivo
[6] = Biodistribution in Tumor/muscle of BALB/c mouse xenografted with […] Colon 26 cells at 37 kBq, iv measured at 48 hrs by auto-well gamma counter analysis; assay type: ADME, organism-based; settings: in vivo
[7] = Biodistribution in lung of BALB/c mouse xenografted with […] Colon 26 cells at 37 kBq, iv measured upto 96 hrs by auto-well gamma counter analysis; assay type: ADME, organism-based; settings: in vivo
[8] = Octanol-water partition coefficient, logP of the compound at pH 7.4 incubated for 10 mins by shake-flask method; assay type: physicochemical
[9] = Biodistribution in Tumor/blood of BALB/c mouse xenografted with […] Colon 26 cells at 37 kBq, iv by auto-well gamma counter analysis; assay type: ADME, organism-based; settings: in vivo, 96 h, TDE = time-dependent effect
Colon 26 [10] = experiment: Photodynamic therapeutic activity against […] Colon 26 cells /c xenografted in BALB/c mouse assessed as tumor growth inhibition at 13.6 umol/kg, iv pretreated for 24 hrs followed by 30 mins irradiation with 50 W LED light and measured upto 7 days; assay type: functional, organism-based; settings: dose 13.6 µmol/kg, time <= 7.0 day, tested as the 125I-labelled form
[11] = Induction of singlet oxygen production in DMSO assessed as singlet oxygen quantum yield by measuring the photooxidation of 9,10-dimethylanthracene at 5 uM irradiated with 50 W LED light; assay type: functional
Colon 26 [12] = experiment: Phototoxicity against […] Colon 26 cells assessed as inhibition of cell growth preincubated for 24 hrs followed by compound washout with replacement of fresh medium and irradiation with 50 W LED light by MTT assay; assay type: functional, cell-based; settings: Mus musculus, Colon 26, light or radiation study
Colon 26 [13] = experiment: Dark toxicity against […] Colon 26 cells assessed as inhibition of cell growth incubated for 24 hrs by MTT assay; assay type: functional, cell-based; settings: Mus musculus, Colon 26, 24 h

SMILES | Drug uptake [1] [% ID/g] | Drug uptake [2] [%] | Drug uptake [3] | Activity [4] | Drug uptake [5] | Drug uptake [6] | Drug uptake [7] | logD at 10 min [8] | Drug uptake [9] | Activity (Colon 26 [10]) | Activity [11] | IC50 (Colon 26 [12]) [µM] | IC50 (Colon 26 [13]) [µM]
Oc1ccc(-c2c3nc(c(-c4ccccc4)c4ccc([nH]4)c(-c4ccccc4)c4nc(c(-c5ccccc5)c5ccc2[nH]5)C=C4)C=C3)cc1[125I] | 18 | 54 | Active | Non-Toxic | Active | Active | Active | 2.96 | Tde | – | – | – | –
O=C(N[C@@H](Cc1ccc(O)c([125I])c1)C(=O)O)c1ccc(-c2c3nc(c(-c4ccccc4)c4ccc([nH]4)c(-c4ccccc4)c4nc(c(-c5ccccc5)c5ccc2[nH]5)C=C4)C=C3)cc1 | 8.7 | 52.9 | Active | Non-Toxic | Active | Active | Active | 2.55 | Tde | – | – | – | –
O=C(N[C@@H](Cc1ccc(O)c(I)c1)C(=O)O)c1ccc(-c2c3nc(c(-c4ccccc4)c4ccc([nH]4)c(-c4ccccc4)c4nc(c(-c5ccccc5)c5ccc2[nH]5)C=C4)C=C3)cc1 | – | – | – | – | – | – | – | – | – | Active | 0.51 | 5.28 | > 100
Oc1ccc(-c2c3nc(c(-c4ccccc4)c4ccc([nH]4)c(-c4ccccc4)c4nc(c(-c5ccccc5)c5ccc2[nH]5)C=C4)C=C3)cc1I | – | – | – | – | – | – | – | – | – | Active | 0.65 | 8.77 | > 50
O=c1[nH]cc(F)c(=O)[nH]1 [FLUOROURACIL] | – | – | – | – | – | – | – | – | – | – | – | 4.1 | 3.87
C1=Cc2nc1c(-c1ccccc1)c1ccc([nH]1)c(-c1ccccc1)c1nc(c(-c3ccccc3)c3ccc([nH]3)c2-c2ccccc2)C=C1 | – | – | – | – | – | – | – | – | – | – | 0.52 | – | –

— ChEMBL document CHEMBL5104227, “Synthesis and evaluation of radiolabeled porphyrin derivatives for cancer diagnoses and their nonradioactive counterparts for photodynamic therapy” (RSC Med Chem, 2022)
